From US20030100548A1, “Arylpiperazines and their use as metallaproteinase inhibiting agents (mmp)” (priority 2000, published 2003)

Structure (SMILES): O=S(=O)(CC(CS)Cc1ccccc1)N1CCN(c2ccc(F)cc2)CC1 (stereo not shown) [Example 1, N-(4-fluorophenyl)-N′-(2-benzyl-3-mercaptopropane-1-sulphonyl)-piperazine]
- melting point: 73 °C
